The numbers were not newly measured in patent publication US20130031645A1, “METHOD FOR HEPATIC DIFFERENTIATION OF DEFINITIVE ENDODERM CELLS” (priority 2009, published 2013), which cites them from elsewhere.

The test system of series [1] is retinoic acid receptors (RARs).
Series [2] deals with RXR receptors.

With `CC1=C(/C=C/C(C)=C/C=C/C(C)=C/C(=O)O)C(C)(C)CCC1` [ATRA, All-trans retinoic acid], the “affinity for the three RAR subtypes” value in series [1] was “approximately equal affinity”. Besides, the “binding to the RXR receptors” value in series [2] was “does not bind”.
